# Patent EP1016405A2, “Arylating medicaments” (Radopath Pharmaceuticals International Limited, priority 1993, dated 1994)
# “And” between values parts separate entries of the source, which are not always exact repeats. Identical values can stand only once. Like-named read-outs stand apart in the source and are kept apart here.
# Assays:
# [1] = Anti-tumour activity in vitro; conditions: statement in words
# B16 murine melanoma = assay: Anti-tumour activity against B16 melanoma in C57/black mice, tumour weight inhibition; assay type: in vivo, female C57/black mice; conditions: statement in words, refers to Table 8
# B16F1-murine melanoma = conditions: mouse, in vivo
# in vitro = conditions: CC50 (Toxicity)
# in vivo = conditions: mouse, ip
# [2] = Anti-tumour activity against MAC16, tumour weight inhibition; assay type: in vivo, murine; conditions: mouse, in vivo; Table 7; ip, per day; corn oil; read-out: maximum tolerated dose
# Experimental: (§1) The purpose of these studies was to evaluate the anti-tumour properties of a group of compounds with structural similarities that may act as arylating agents. Their in vivo anti-tumour responses were assessed against two ascitic tumours, the MAC15A murine colon adenocarcinoma and the P388 murine leukaemia and various solid tumour models.
# (§2) The MAC15A ascites tumour cells were transplanted into male NMR1 mice by ip inoculation at a cell density of 1 X 10^5 cells in 200µl buffer (Table 1). The P388 were transplanted ip into male BDF1 mice at cell density of 1 X 10^6 cells in 200µl buffer (Table 2). The solid tumour models included the MAC13 and MAC16 murine colon adenocarcinomas, the B16 F1 murine melanoma and the M5076 reticulum cell sarcoma.
# (§3) Treatment commenced 3 days after ip transplant or, in the case of solid tumours such as MAC13 and MAC16, treatment commenced when average tumour volumes reached 40mm^3.
# (§4) The animals were sacrificed after 12 days or when tumours ulcerated, tumour volume exceeded 1000mm^3 or loss of body weight exceeded 50%.
# (§5) Except where otherwise stated, the compounds used were dissolved in DMSO and diluted in sterile distilled water, at appropriate concentrations before administration in a solvent volume of 200 µl. Anti-tumour responses were obtained by comparing the median survival times or tumour growth inhibition against solvent controls.
# [3] = tested on: MAC16, murine colon adenocarcinoma; assay: as above; assay type: in vivo; conditions: for % Tumour Weight Inhibition: day 11 after beginning of treatment, sc transplant, corn oil
# Experimental: as §1, §2, §3, §4, §5
# [4] = Anti-tumour activity against MAC13, tumour weight inhibition; assay type: in vivo, murine; conditions: mouse, in vivo; Table 6; ip, per day; corn oil; read-out: maximum tolerated dose
# Experimental: as §1, §2, §3, §4, §5
# [5] = tested on: MAC13 murine colon adenocarcinoma; assay: as above; assay type: in vivo; conditions: 12 days after im transplant, corn oil
# Experimental: as §1, §2, §3, §4, §5
# [6] = tested on: MAC15A (murine adenocarcinoma colon); assay: Anti-tumour activity against MAC15A ascites tumour, survival T/C%; assay type: in vivo, mice; conditions: ip
# HIV-1IIIB = assay: Acute infection assay against HIV-1IIIB; assay type: cell-based, human immunodeficiency virus
# [7] = tested on: M5076 reticulum cell sarcoma; assay: Anti-tumour activity against M5076 reticulum cell sarcoma; assay type: in vivo, murine; conditions: statement in words
# Experimental: as §1, §2, §3, §4, §5
# P388 (murine leukaemia) = assay: Anti-tumour activity against P388 ascites tumour, survival T/C%; assay type: in vivo, mice; conditions: Table 2, mean, day 1 to 5
# Experimental: as §1, §2, §3
# The animals were located in both cases into groups of 5 to 8 animals.
# as §4
# Except where otherwise stated, the compounds used were dissolved in DMSO and diluted in sterile distilled water, at appropriate concentrations before administration in a solvent volume of 200 µl. […]
# T/C% is determined as follows:- […]
# HIV-1RF = assay: Acute Infection Assay, HIV core antigen ELISA in C8166 cells; assay type: cell-based, human immunodeficiency virus
smiles,measurement,setting,value
O=C(O)c1cc([N+](=O)[O-])ccc1Cl [2-chloro-5-nitrobenzoic acid],anti-tumour activity in vitro,[1],could not be supported in vitro
same,anti-tumour activity in vivo,B16 murine melanoma,shows consideration anti-tumour activity in vivo
"O=C(O)c1cc([N+](=O)[O-])c(Cl)c([N+](=O)[O-])c1Cl [Compound C1, 2,4-dichloro-3,5-dinitrobenzoic acid]",inhibition of tumour growth,B16F1-murine melanoma,effectively inhibited growth
same,CC50,uninfected cells,60 µM
same,CC50,in vitro,56 µM
same,MTD,in vivo,75 mg/kg
same,MTD at 12 days,[2],75 mg/kg
same,% Tumour Weight Inhibition,"[3]; 50 mg/kg ip, days 1,2,4,5,8",91%
same,% Tumour Weight Inhibition,"[3]; 75 mg/kg ip, days 1,2,5,8",88%
same,inhibition of tumour growth,"[3]; statement in words, MAC16 murine colon adenocarcinoma",effectively inhibited growth
same,MTD at 12 days,[4],75 mg/kg
same,% Tumour Weight Inhibition,"[5]; 50 mg/kg ip, days 1,2,3,4,5,6,7,8,9",39%
same,% Tumour Weight Inhibition,"[5]; 75 mg/kg ip, days 1,4,5",45%
same,response vs control in vivo at 100 mg/kg,"[6]; Mus musculus, MAC15A, read-out: T/C%",243%
"NC(=O)c1cc([N+](=O)[O-])c(Cl)c([N+](=O)[O-])c1Cl [Compound C2, 2,4-dichloro-3,5-dinitrobenzamide]",SI (Selectivity Index),HIV-1IIIB,35
same,IC50,"HIV-1IIIB; Human immunodeficiency virus 1, IIIB, read-out: IC50 (Antiviral)",2 µM
same,CC50,in vitro,70 µM
same,antitumour activity,[7],without antitumour activity
same,MTD,in vivo,2.5 mg/kg
same,MTD at 12 days,[4],2.5 mg/kg
same,% Tumour Weight Inhibition,"[5]; 1.25 mg/kg ip, days 1,2,3,4,5,6,7,8,9",17%
same,% Tumour Weight Inhibition,"[5]; 2.5 mg/kg ip, days 1,2,3,4,5,6,7,8,9",51%
"O=[N+]([O-])c1cc(S(=O)(=O)O)cc([N+](=O)[O-])c1Cl [Compound S1, 4-chloro-3,5-dinitrobenzenesulfonic acid]",CD50,uninfected cells,80 µM
same,TC%,P388 (murine leukaemia); 50 mg kg^-1 per day IP,259%
same,TC%,P388 (murine leukaemia); 100mg kg^-1 per day IP,203%
same,CC50,in vitro,100 µM
same,SI (Selectivity Index),HIV-1RF,5 and 3
same,TI,HIV-1RF,28.6
same,IC50,HIV-1RF; read-out: IC50,3 µM
same,IC50,HIV-1RF; read-out: IC50 (Antiviral),20 µM and 19 µM
same,T/C%,"[6]; mouse, in vivo",414%
